Experiments:
[1] = Apparent oral clearance in beagle dog at 5 mg/kg, po followed by activated charcoal administration 0.25 hrs post compound dosing; type: ADME, organism-based, Canis lupus familiaris; set-up: dose 5 mg/kg, route oral; details: in vivo
[2] = Plasma concentration in beagle dog at 5 mg/kg, po at 8 hrs; type: ADME, organism-based, Canis lupus familiaris; set-up: dose 5 mg/kg, route oral
[3] = Half life in Sprague-Dawley rat at 4 mg/kg, po administered 1 hr post GF-120918 treatment; type: ADME, organism-based; set-up: dose 4 mg/kg, route oral; details: in vivo, with GF-120918
[4] = AUC (0 to 24 hrs) in beagle dog at 5 mg/kg, po; type: ADME, organism-based, Canis lupus familiaris; set-up: time < 24 hr, dose 5 mg/kg, route oral; details: plasma
[5] = Plasma concentration in beagle dog at 5 mg/kg, po followed by activated charcoal administration 0.25 hrs post compound dosing measured at 8 hrs; type: ADME, organism-based, Canis lupus familiaris; set-up: dose 5 mg/kg, route oral
[6] = Cmax in beagle dog at 5 mg/kg, po followed by activated charcoal administration 0.25 hrs post compound dosing; type: ADME, organism-based, Canis lupus familiaris; set-up: dose 5 mg/kg, route oral; details: in vivo
Homo sapiens = species on record: Homo sapiens; assay: Plasma clearance in human relative to hepatic blood flow; type: ADME, organism-based; details: in vivo
[7] = Mean residence time in P-gp-knockout Sprague-Dawley rat at 4 mg/kg, po; type: ADME, organism-based; set-up: dose 4 mg/kg, route oral; details: in vivo
[8] = Cmax in BCRP-knockout Sprague-Dawley rat at 4 mg/kg, po; type: ADME, organism-based; set-up: dose 4 mg/kg, route oral; details: in vivo
[9] = AUC (0 to infinity) in BCRP-knockout Sprague-Dawley rat at 4 mg/kg, po; type: ADME, organism-based; set-up: time infinity, dose 4 mg/kg, route oral; details: plasma
[10] = Half life in beagle dog at 5 mg/kg, po followed by activated charcoal administration 1 hr post compound dosing; type: ADME, organism-based, Canis lupus familiaris; set-up: dose 5 mg/kg, route oral; details: in vivo
[11] = Cmax in beagle dog at 5 mg/kg, po followed by activated charcoal administration 3 hrs post compound dosing; type: ADME, organism-based, Canis lupus familiaris; set-up: dose 5 mg/kg, route oral; details: in vivo
[12] = Apparent oral clearance in wild-type Sprague-Dawley rat at 4 mg/kg, po; type: ADME, organism-based; set-up: dose 4 mg/kg, route oral; details: in vivo
[13] = Half life in beagle dog at 5 mg/kg, po followed by activated charcoal administration 0.25 hrs post compound dosing; type: ADME, organism-based, Canis lupus familiaris; set-up: dose 5 mg/kg, route oral; details: in vivo
[14] = Apparent oral clearance in beagle dog at 5 mg/kg, po followed by activated charcoal administration 1 hr post compound dosing; type: ADME, organism-based, Canis lupus familiaris; set-up: dose 5 mg/kg, route oral; details: in vivo
[15] = Half life in human administered bid orally; type: ADME, organism-based; details: in vivo, po
[16] = Apparent oral clearance in Sprague-Dawley rat at 4 mg/kg, po administered 1 hr post GF-120918 treatment; type: ADME, organism-based; set-up: dose 4 mg/kg, route oral; details: in vivo, with GF-120918
[17] = Mean residence time in wild-type Sprague-Dawley rat at 4 mg/kg, po; type: ADME, organism-based; set-up: dose 4 mg/kg, route oral; details: in vivo
[18] = AUC (0 to infinity) in wild-type Sprague-Dawley rat at 4 mg/kg, po; type: ADME, organism-based; set-up: time infinity, dose 4 mg/kg, route oral; details: plasma
[19] = Oral steady-state volume of distribution in beagle dog at 5 mg/kg followed by activated charcoal administration 3 hrs post compound dosing; type: ADME, organism-based, Canis lupus familiaris; set-up: dose 5 mg/kg; details: in vivo, read-out: Vss/F
[20] = Half life in wild-type Sprague-Dawley rat at 4 mg/kg, po; type: ADME, organism-based; set-up: dose 4 mg/kg, route oral; details: in vivo
[21] = Oral bioavailability in wild-type Sprague-Dawley rat at 4 mg/kg; type: ADME, organism-based; details: in vivo
Rattus norvegicus = species on record: Rattus norvegicus; assay: Plasma clearance in rat relative to hepatic blood flow; type: ADME, organism-based; details: in vivo
[22] = Half life in P-gp-knockout Sprague-Dawley rat at 4 mg/kg, po; type: ADME, organism-based; set-up: dose 4 mg/kg, route oral; details: in vivo
[23] = Oral steady-state volume of distribution in BCRP-knockout Sprague-Dawley rat at 4 mg/kg; type: ADME, organism-based; set-up: dose 4 mg/kg; details: in vivo, read-out: Vss/F
[24] = Oral bioavailability in Sprague-Dawley rat at 4 mg/kg administered 1 hr post GF-120918 treatment; type: ADME, organism-based; details: in vivo, with GF-120918
[25] = Cmax in beagle dog at 5 mg/kg, po; type: ADME, organism-based, Canis lupus familiaris; set-up: dose 5 mg/kg, route oral; details: in vivo
[26] = Apparent oral clearance in BCRP-knockout Sprague-Dawley rat at 4 mg/kg, po; type: ADME, organism-based; set-up: dose 4 mg/kg, route oral; details: in vivo
[27] = Half life in beagle dog at 5 mg/kg, po followed by activated charcoal administration 3 hrs post compound dosing; type: ADME, organism-based, Canis lupus familiaris; set-up: dose 5 mg/kg, route oral; details: in vivo
[28] = Oral steady-state volume of distribution in beagle dog at 5 mg/kg followed by activated charcoal administration 1 hr post compound dosing; type: ADME, organism-based, Canis lupus familiaris; set-up: dose 5 mg/kg; details: in vivo, read-out: Vss/F
[29] = Oral bioavailability in beagle dog at 5 mg/kg followed by activated charcoal administration 3 hrs post compound dosing; type: ADME, organism-based, Canis lupus familiaris; details: in vivo
[30] = Mean residence time in Sprague-Dawley rat at 4 mg/kg, po administered 1 hr post GF-120918 treatment; type: ADME, organism-based; set-up: dose 4 mg/kg, route oral; details: in vivo, with GF-120918
[31] = Apparent oral clearance in beagle dog at 5 mg/kg, po; type: ADME, organism-based, Canis lupus familiaris; set-up: dose 5 mg/kg, route oral; details: in vivo

COc1ccc(-n2nc(C(N)=O)c3c2C(=O)N(c2ccc(N4CCCCC4=O)cc2)CC3)cc1
CL/F [1]: 1.37 mL/min/kg
concentration at 8 h [2]: 5230 ng/mL
half-life [3]: 1.6 h
AUC(0-t) at 24 h [4]: 78600 ng·h/mL
concentration at 8 h [5]: 2820 ng/mL
Cmax [6]: 8420 ng/mL
CL (Homo sapiens): < 5%
MRT [7]: 3.8 h
Cmax [8]: 1920 ng/mL
AUC(0-inf) [9]: 5710 ng·h/mL
half-life [10]: 4 h
Cmax [11]: 8070 ng/mL
CL/F [12]: 25 mL/min/kg
half-life [13]: 4.2 h
CL/F [14]: 1.28 mL/min/kg
half-life [15]: 12 h
CL/F [16]: 5 mL/min/kg
MRT [17]: 3.8 h
AUC(0-inf) [18]: 1390 ng·h/mL
Vd/F [19]: 0.5 L/kg
half-life [20]: 3.3 h
bioavailability [21]: 49%
CL (Rattus norvegicus): < 5%
half-life [22]: 3.8 h
Vd/F [23]: 1.1 L/kg
bioavailability [24]: 140%
Cmax [25]: 9350 ng/mL
CL/F [26]: 6.67 mL/min/kg
half-life [27]: 3 h
Vd/F [28]: 0.5 L/kg
bioavailability [29]: 77%
MRT [30]: 2.1 h
CL/F [31]: 1 mL/min/kg

From ChEMBL document CHEMBL3526058, “Investigating the enteroenteric recirculation of apixaban, a factor Xa inhibitor: administration of activated charcoal to bile duct-cannulated rats and dogs receiving an intravenous dose and use of drug transporter knockout rats” (Drug Metab Dispos, 2013)
